Reference: patent US12551368B2, “Bioerodible ocular drug delivery insert and therapeutic method” (EyePoint Pharmaceuticals, Inc., priority 2020, dated 2026)

Experiments:
[1] = cited from earlier work
[2] = Intravitreal Pharmacokinetic Study of vorolanib insert (Example 5); type: in vivo, Male Dutch Belted Rabbits
Procedure: An Intravitreal Pharmacokinetic Study was performed in Male Dutch Belted Rabbits. The objective of this study was to characterize the plasma and ocular tissue pharmacokinetics of a vorolanib insert following bilateral intravitreal injection on Day 1. Animals were evaluated up to 24 months following placement of the intravitreal insert.
The low dose group (1) received 3 inserts per eye for a total dose of 630 μg per eye. The high dose group (2) animals received 6 inserts per eye given in 2 separate injections (3 inserts per injection) for a total dose of 1,260 μg per eye.
Prior to each scheduled sacrifice point, one whole blood sample was collected from a targeted 2 animals per group via puncture of a marginal ear vein. Samples were tested for levels of vorolanib and its metabolite. Two animals per group were euthanized on day 1 at 6, 12, 24 and 48 hours, on days 7 and 14, and at 1, 2, 4, 6, 8, 16 and 24 months.

[3] = 18 month intravitreal toxicity and plasma pharmacokinetics study of the insert (Example 6); type: in vivo; settings: rabbit
Procedure: An 18 month intravitreal toxicity study for the insert was also performed in 80 Dutch Belted rabbits (40 male and 40 female). Animals were evaluated for a period of 6 and 18 months following placement of intravitreal inserts. The objective was to characterize the ocular toxicity, plasma pharmacokinetics and biodegradation of a vorolanib insert following bilateral intravitreal injection.
The tables below describe the group assignments and dose levels. For the toxicology groups, animals were sacrificed at 6 months and 18 months. For the plasma pharmacokinetic analysis, blood samples were collected at Days 1, 3, and 7 and then 1, 2, 3, 4, 5, 6, 12, 14, 16 and 18 Months
The placebo group (1) animals received two placebo inserts by injection in each eye. The low dose group (2) animals received 2 inserts in each eye. The mid dose group (3) animals received 3 inserts in each eye given in 2 separate injections. The high dose group (4) animals received 4 inserts in each eye given in 2 separate injections (2 inserts/injection). The highest dose group (5) animals received 6 inserts in each eye given in 2 separate injections (3 inserts/injection).
At each scheduled timepoint, whole blood was collected via puncture of a marginal ear vein. Samples were analyzed for clinical pathology and plasma pharmacokinetics. Animals were euthanized according to the schedules described above. […]

[4] = system: Laser-Induced Choroidal Neovascularization (CNV); experiment: Laser-Induced Choroidal Neovascularization (CNV) model, fluorescein angiography (Example 7); type: in vivo, Swine (Mini-pig)
Procedure: Safety and efficacy of a vorolanib insert were evaluated in a Swine (Mini-pig) Model of Laser-Induced Choroidal Neovascularization (CNV). The primary objective of this study was to evaluate the long-term safety and inhibition of vascular permeability and neovascularization in a laser-induced model of choroidal neovascularization (CNV) using a vorolanib insert in swine.
On the day of lasering (Groups 1-4) animals were treated with an 810 nm diode laser delivered through an indirect ophthalmoscope. Approximately 6 single laser spots were placed between retinal veins. Both eyes underwent laser treatment according to the schedule in the table above.
On the day of intravitreal injections animals were anesthetized and the eyes were aseptically prepared. […] Animals were allowed to recover normally from the procedure. The pigs were given a topical drop of antibiotic ophthalmic solution 4-6 hours later, and then BID for 2 additional days with at least 6 hours between doses. Animals were dosed on either Day 0 immediately following laser CNV induction or 7 days prior to laser CNV induction according to the schedule in the table above.
Flourescein Angiography was done in both eyes in anesthetized animals at the timepoints as indicated in the experimental design table.

Compound: CNC(=O)c1ccccc1Sc1ccc2c(/C=C/c3ccccn3)n[nH]c2c1 [axitinib, N-methyl-2-[3-((E)-2-pyridin-2-yl-vinyl)-1H-indazol-6-ylsulfanyl]-benzamide]
- solubility in aqueous media ([1]; over the range pH 1.1 to pH 7.8): > 0.2 µg/mL

Compound: Cc1[nH]c(/C=C2\C(=O)Nc3ccc(F)cc32)c(C)c1C(=O)N[C@H]1CCN(C(=O)N(C)C)C1 [vorolanib, (S,Z)—N-(1-(Dimethylcarbamoyl)pyrrolidin-3-yl)-5-((5-fluoro-2-oxoindolin-3-ylidene)methyl)-2,4-dimethyl-1H-pyrrole-3-carboxamide]
- dose proportionality of maximum observed concentrations in vitreous and retina/choroid ([2]; 630 vs 1,260 μg per eye, rabbit): nearly dose-proportional
- vorolanib plasma levels ([2]; PK study, rabbit): low pg/mL range
- change in plasma levels ([2]; after 99 days, rabbit): No apparent change
- vorolanib levels in the vitreous and the retina/choroid relative to the IC50 for VEGFR ([2]; at the time points tested, rabbit): remained significantly above the IC50 for VEGFR
- time at which steady state was reached ([2]; inserts in rabbit eye): ≤ 105 days
- burst period of drug release in vivo ([2]; inserts in rabbit eye, followed by steady state): 90 days
- vorolanib plasma levels ([3]; 2 to 6 inserts per eye, bilateral intravitreal, toxicology study): low pg/mL range
- adverse findings ([3]; intravitreal, up to 6 inserts per eye): No adverse findings were attributed to vorolanib
- solubility in water [1]: less than 0.1 μg/mL

Compound: aflibercept: VEGF inhibitor used as comparator, 2 mg, 50 μL/eye IVT
- reduction in Corrected Total Lesion Fluorescence (CTLF) value ([4]; Day 7 to Day 28, Aflibercept (2 mg), 50 μL/eye IVT): largest reduction in CTLF values
- overall efficacy in the CNV model ([4]; IVT, swine): normal amounts of efficacy in this model
